{"source": "patent US20110294952A1", "about": "“Optimized Drug Conjugates” (SynDevRX, priority 2010, published 2011)", "key": {"[1]": {"experiment": "In vivo pharmacokinetics of polymer conjugate", "parameters": "species or system Sprague-Dawley rats", "details": "SDX-7539 single bolus IV 30 mg/kg, rat plasma", "procedure": "FIG. 6 is a graph showing the plasma concentration of the active metabolite, SDX-7539, as a function of time in Sprague-Dawley rats, to which either the polymer conjugate SDX-7320 (single bolus, intravenous injection, 200 mg/kg) or the small molecule SDX-7539 (single bolus, intravenous injection, 30 mg/kg) has been administered.\nThe polymer conjugate, SDX-7320, or the in vivo release product, SDX-7539 were administered to Sprague-Dawley rats (N=3). Blood was collected over 48 hours after dosing to determine the plasma concentration of SDX-7539 by LC-MS/MS. The LLOQ for SDX-7539 was 2.5 nM. The terminal elimination half-life for SDX-7539 was estimated by fitting a linear regression to the ln [SDX-7539] versus time data. […] Cmax for the polymer is about 2% of the value for the small molecule."}, "A549 cells [2]": {"tested_on": "A549 cells", "assay_type": "in vitro ADME, human", "procedure": "Cells were treated as in Example 51 except that at the end of 72 hour exposure to test agent, the cells were frozen (−70° C.) and stored for subsequent evaluation by LC/MS."}, "[3]": {"experiment": "Aqueous stability of carbamoylfumagillol in buffer", "assay_type": "physicochemical", "details": "for Natural Rate Constant: 37° C., 5 μM", "quoted_text": "At the appropriate time points, a 50 μL sample was withdrawn and diluted with three volumes of methanol containing propranolol as an internal standard (one solution was made for the entire study). The concentration of carbamoylfumagillol in the solution was analyzed by LC/MS/MS over seven days."}, "[4]": {"tested_on": "A549 cells vs HUVEC cells", "experiment": "A549/HUVEC selectivity", "assay_type": "cell-based, human", "details": "ratio of IC50 values"}, "A549 cells [5]": {"tested_on": "A549 cells", "experiment": "A549 human non-small cell lung carcinoma cell viability assay (CellTiter-Glo)", "assay_type": "cell-based", "details": "small molecules, 72 hours", "procedure": "(§1) Test compounds, small molecules or polymer conjugates, were dissolved in dimethyl sulfoxide to a stock concentration of 5 mg/mL. The test agents were then diluted to an intermediate concentration at 200 μg/mL in 10% DMSO. Further dilutions were completed serially 3-fold in 10% DMSO to produce 12 decreasing concentrations for in-vitro analysis. To achieve the target concentrations of the in-vitro assays, 1 μL of the intermediate drug preparation was delivered to the cells (seeded in a volume of 50 μL). The final DMSO concentration for the tests was 0.2% for all doses of test agent.\nCells were exposed to twelve increasing concentrations of formulated test agent from 2×10^−6 to 4.0 μg/mL for 72 hours. Following 72 hour exposure, 25 μL it of CellTiter-Glo® Reagent was added to each well. The plates were incubated for 60 minutes at 37° C. in a humidified incubator. After incubation, luminescence was recorded using the Molecular Devices AnalystGT multi-mode reader.\nData are expressed as the percent cell growth of the untreated (vehicle) control calculated from the luminescence signals. The surviving fraction of cells is determined by dividing the mean luminescence values of the test agents by the mean luminescence values of untreated control. […]"}, "HCT-116 cells": {"tested_on": "HCT-116 cells", "experiment": "HCT-116 human colon tumor cell viability assay (CellTiter-Glo)", "assay_type": "cell-based", "details": "small molecules, 72 hours, read-out: HCT116 IC50 Average", "procedure": "as §1\n(§2) Data are expressed as the percent cell growth of the untreated (vehicle) control calculated from the luminescence signals. The surviving fraction of cells is determined by dividing the mean luminescence values of the test agents by the mean luminescence values of untreated control. The inhibitory concentration value for the test agent(s) and control were estimated using Prism 5 software (GraphPad Software, Inc.) by curve-fitting the data using the non-linear regression analysis.\nThe human tumor cell lines A549 and HCT-116 were obtained from American Type Culture Collection (Manassas, Va.). […]\nCells were exposed to twelve increasing concentrations of formulated test agent from 2.3×10^−6 to 4.02 μg/mL for 72 hours. […] After incubation, luminescence was recorded using the Molecular Devices AnalystGT multi-mode reader."}, "HUVEC cells": {"tested_on": "HUVEC cells", "experiment": "Human umbilical vein epithelial cell viability assay (CellTiter-Glo)", "assay_type": "cell-based", "details": "small molecules, 72 hours", "procedure": "as §1, §2\nThe Human umbilical vein epithelial cells (HUVEC) were obtained from Lonza (Basel, Switzerland). […]\nHUVEC cells were seeded at 1000 cells per well 24 hours prior to test agent exposure in a volume of 50 μL. […] After incubation, luminescence was recorded using the Molecular Devices AnalystGT multi-mode reader."}}}
{"compound": "CO[C@@H]1[C@H](OC(=O)NC2CCC(N)CC2)CC[C@]2(CO2)[C@H]1[C@@]1(C)O[C@@H]1CC=C(C)C", "note": "(stereo partly drawn) [SDX-7539]", "values": [{"measurement": "Cmax", "setting": "[1]", "result": "~15", "unit": "µM"}, {"measurement": "half-life of SDX-7539", "setting": "[1]", "result": "10 to 15", "unit": "min"}]}
{"compound": "poly[HPMA-co-MA-GFLG-N-(6-aminohexyl)carbamoylfumagillol]", "values": [{"measurement": "metabolites identified from treated cells", "setting": "A549 cells [2]", "result": "N-(6-aminohexyl)carbamoylfumagillol, fumagill-6-yl {6-[(aminoacetyl)amino]hexyl}carbamate, and the epoxide hydrolysis product, (3S,7aR)-7a-(hydroxymethyl)-4-methoxy-3-methyl-2-(3-methylbut-2-en-1-yl)octahydro-1-benzofuran-3-ol-5-yl 6-aminohexyl carbamate"}]}
{"compound": "CO[C@@H]1[C@H](OC(N)=O)CC[C@]2(CO2)[C@H]1[C@@]1(C)O[C@@H]1CC=C(C)C", "note": "[Compound O-7127-1, Carbamoylfumagillol]", "values": [{"measurement": "Natural Rate Constant", "setting": "[3]; pH 4.0 sodium acetate buffer", "result": 0.0054, "unit": "h⁻¹"}, {"measurement": "Natural Rate Constant", "setting": "[3]; pH 5.3 sodium acetate buffer", "result": 0.0017, "unit": "h⁻¹"}, {"measurement": "decomposition over the seven day period", "setting": "[3]; pH 5.3 to 8.0, 37° C., seven days", "result": "less than 20%"}, {"measurement": "Natural Rate Constant", "setting": "[3]; pH 6.7 potassium phosphate buffer", "result": 0.0010, "unit": "h⁻¹"}, {"measurement": "Natural Rate Constant", "setting": "[3]; pH 8.0 potassium phosphate buffer", "result": 0.0011, "unit": "h⁻¹"}, {"measurement": "A549/HUVEC IC50 ratio", "setting": "[4]", "result": 33.63}]}
{"compound": "CO[C@@H]1[C@H](OC(=O)N[C@@H](C(N)=O)C(C)C)CC[C@]2(CO2)[C@H]1[C@@]1(C)O[C@@H]1CC=C(C)C", "note": "[Compound O-7177, PPI-2458]", "values": [{"measurement": "IC50", "setting": "A549 cells [5]", "result": 0.215, "unit": "ng/mL"}, {"measurement": "IC50", "setting": "HCT-116 cells", "result": 0.236, "unit": "ng/mL"}, {"measurement": "IC50", "setting": "HUVEC cells", "result": 0.101, "unit": "ng/mL"}]}
